According to patent US20220107246A1, “NONCOVALENT TAGS AND RELATED METHODS FOR CYTOSOLIC DELIVERY OF MACROBIOMOLECULES” (University of Washington, priority 2019, published 2022):

Columns and labels:
Assay type in all cases: cell-based
HeLa cells [1] = assay: Toxicity study of CB and cholesterol tag (CellTiter-Blue); conditions: FIG. 14, HeLa cells
Procedure: Cytotoxicity of the tag was evaluated on HeLa cells. Briefly, cells were seeded in 96-well plates at 3,000 cells/well. CB, the tag, or tagged protein (BSA) was added at a series of concentrations from 10 μM to 3.3 nM. Untreated cells were used as control. After 48-h incubation, 10 μl of CellTiter-Blue reagent (Promega) was added to the wells and the culture was incubated for another 1 h. Cell viability was examined on a microplate reader (Tecan) at ex/em=560/590 nm and the toxicity was analyzed according to the manufacturer's protocol.

HeLa cells [2] = assay: Cancer cell viability upon treatment with cytochrome c (LIVE/DEAD); conditions: Cyt c concentration of 2 μM for cell incubation
Procedure: (§1) HeLa cells were seeded onto glass-bottom dishes and cultured overnight. The cells were treated with cyt c (tagged or untagged) of various concentrations in culture media for 4 h, washed, and cultured in fresh media for another 48 h. Cell viability was measured using the dual-color LIVE/DEAD Viability/Cytotoxicity Kit following the manufacturer's instruction.

HeLa cells [3] = assay: Cyt c delivery and intracellular distribution (fluorescence imaging)
Description: For a proof-of-principle application in therapeutic protein delivery, we selected cytochrome c (Cyt c), an intracellular signaling protein for apoptosis, as a model cargo molecule. To track Cyt c delivery and intracellular distribution, it was labeled with a fluorescent dye (AF488, green). Cell nucleic were counterstained by Hoechst 33258 (blue). […] This is expected because Cyt c is a highly water-soluble macromolecule (m.w. ˜12 kDa) that cannot diffuse through the cell membrane by itself. Instead, a minute amount of Cyt c was uptaken by cells but trapped in endosomes/lysosomes (not shown). […] This study proves the feasibility and potential of specific targeting of certain cell signaling nodes inside cells with protein drugs.
as §1

Compound	biocompatibility (HeLa cells [1])	cell viability (HeLa cells [2])	intracellular fluorescence of AF488-labeled Cyt c (HeLa cells [3])
CCOc1ccc(Nc2ccc(/C(=C3C=C/C(=[N+](/CC)Cc4cccc(S(=O)(=O)[O-])c4)C=C/3C)c3ccc(N(CC)Cc4cccc(S(=O)(=O)[O-])c4)cc3C)cc2)cc1.[Na+] [Coomassie blue]	biocompatible	–	–
Cyt c alone: cytochrome c, intracellular signaling protein for apoptosis, m.w. ~12 kDa, untagged	–	no sign of toxicity	minor dotted intracellular green fluorescence
